We go through two compounds from ChEMBL document CHEMBL1275601, “Striking species difference in the contribution of concentrative nucleoside transporter 2 to nucleoside uptake between mouse and rat hepatocytes” (Antimicrob Agents Chemother, 2010).

What all share (type): cell-based
In test [1] the target is T1, Sodium/nucleoside cotransporter 1 (Rattus norvegicus) (UniProt Q62674).
T1 sequence (whole entry): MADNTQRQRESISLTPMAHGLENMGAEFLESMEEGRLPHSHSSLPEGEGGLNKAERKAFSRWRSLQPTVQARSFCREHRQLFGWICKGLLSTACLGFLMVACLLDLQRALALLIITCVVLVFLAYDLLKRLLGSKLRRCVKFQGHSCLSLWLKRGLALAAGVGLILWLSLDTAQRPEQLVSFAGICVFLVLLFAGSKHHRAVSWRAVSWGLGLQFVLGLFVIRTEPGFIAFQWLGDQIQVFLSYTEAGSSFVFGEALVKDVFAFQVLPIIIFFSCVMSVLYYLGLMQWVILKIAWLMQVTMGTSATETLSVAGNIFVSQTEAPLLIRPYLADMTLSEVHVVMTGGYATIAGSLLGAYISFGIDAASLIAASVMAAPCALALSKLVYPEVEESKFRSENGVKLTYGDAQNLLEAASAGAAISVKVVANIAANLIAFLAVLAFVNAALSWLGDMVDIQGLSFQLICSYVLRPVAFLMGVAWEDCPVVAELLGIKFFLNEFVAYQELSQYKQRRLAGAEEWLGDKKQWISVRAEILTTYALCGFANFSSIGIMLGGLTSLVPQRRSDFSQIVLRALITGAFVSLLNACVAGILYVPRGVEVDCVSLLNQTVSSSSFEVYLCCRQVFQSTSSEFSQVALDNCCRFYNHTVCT
Description: Transport through CNT1 in rat hepatocytes by oil filtration assay in presence of sodium ions in Kreb-henseleit buffer containing 100 uM NBMPR and 1 mM uridine. Conditions: Hepatocyte.

Test [2] has as its system Hepatocyte. Description: Transport through CNT1 in mouse hepatocytes by oil filtration assay in presence of sodium ions in Kreb-henseleit buffer.
The target of test [3] is T2, Equilibrative nucleoside transporter 1 (Mus musculus) (UniProt Q9JIM1).
T2 sequence (whole entry): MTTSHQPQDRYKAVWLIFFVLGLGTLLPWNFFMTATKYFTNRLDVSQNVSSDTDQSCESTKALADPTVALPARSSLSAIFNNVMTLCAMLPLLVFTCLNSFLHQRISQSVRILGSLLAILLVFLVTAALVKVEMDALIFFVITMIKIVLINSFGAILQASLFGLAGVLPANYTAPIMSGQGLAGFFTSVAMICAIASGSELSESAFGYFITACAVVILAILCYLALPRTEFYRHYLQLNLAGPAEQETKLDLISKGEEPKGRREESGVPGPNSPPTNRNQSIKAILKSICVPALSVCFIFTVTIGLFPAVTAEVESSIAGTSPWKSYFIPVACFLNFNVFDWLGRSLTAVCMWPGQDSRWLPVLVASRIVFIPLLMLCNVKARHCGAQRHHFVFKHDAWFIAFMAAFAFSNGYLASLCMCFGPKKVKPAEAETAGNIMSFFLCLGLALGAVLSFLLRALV
Description: Transport through ENT1 in mouse hepatocytes by oil filtration assay in presence 100 nM of transporter inhibitor NBMRP. Conditions: Hepatocyte.

Test [4] has as its target T1, Sodium/nucleoside cotransporter 1 (Rattus norvegicus). In words: Transport through CNT1 in rat hepatocytes by oil filtration assay in presence of sodium ions in Kreb-henseleit buffer containing 100 uM NBMPR and thymidine. Conditions: Hepatocyte.
Test [5] has as its target T3, Equilibrative nucleoside transporter 2 (Rattus norvegicus) (UniProt O54699).
T3 sequence (whole entry): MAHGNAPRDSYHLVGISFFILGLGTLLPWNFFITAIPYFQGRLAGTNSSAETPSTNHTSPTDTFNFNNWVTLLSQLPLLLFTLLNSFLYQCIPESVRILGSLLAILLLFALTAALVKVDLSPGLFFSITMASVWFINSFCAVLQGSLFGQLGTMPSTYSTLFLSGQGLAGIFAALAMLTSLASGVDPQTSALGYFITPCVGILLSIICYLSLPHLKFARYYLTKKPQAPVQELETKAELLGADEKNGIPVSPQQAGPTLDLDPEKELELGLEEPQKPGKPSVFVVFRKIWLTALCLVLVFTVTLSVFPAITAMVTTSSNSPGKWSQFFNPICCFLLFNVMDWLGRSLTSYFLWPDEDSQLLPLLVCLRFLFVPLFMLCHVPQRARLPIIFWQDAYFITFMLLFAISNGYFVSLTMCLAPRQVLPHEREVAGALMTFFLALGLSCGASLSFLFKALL
Description: Transport through ENT2 in rat hepatocytes by oil filtration assay in presence of sodium ions in Kreb-henseleit buffer containing 100 uM NBMPR. Conditions: Hepatocyte.

Test [6] addresses T1, Sodium/nucleoside cotransporter 1 (Rattus norvegicus). Description: Transport through CNT1 in rat hepatocytes by oil filtration assay. The following applies: Hepatocyte.
Test [7] has the same target. Description: Transport through CNT1 in rat hepatocytes by oil filtration assay in presence of sodium ions in Kreb-henseleit buffer. Conditions: Hepatocyte.
For test [8], the target named is T2, Equilibrative nucleoside transporter 1 (Mus musculus). In words: Transport through ENT1 in mouse hepatocytes by oil filtration assay in presence 100 uM of transporter inhibitor NBMRP. Conditions: Hepatocyte.
For test [9], the target named is T3, Equilibrative nucleoside transporter 2 (Rattus norvegicus). In words: Transport through ENT2 in rat hepatocytes by oil filtration assay. The following applies: Hepatocyte.
Test [10] has as its target T4, Equilibrative nucleoside transporter 1 (Rattus norvegicus) (UniProt O54698).
T4 sequence (whole entry): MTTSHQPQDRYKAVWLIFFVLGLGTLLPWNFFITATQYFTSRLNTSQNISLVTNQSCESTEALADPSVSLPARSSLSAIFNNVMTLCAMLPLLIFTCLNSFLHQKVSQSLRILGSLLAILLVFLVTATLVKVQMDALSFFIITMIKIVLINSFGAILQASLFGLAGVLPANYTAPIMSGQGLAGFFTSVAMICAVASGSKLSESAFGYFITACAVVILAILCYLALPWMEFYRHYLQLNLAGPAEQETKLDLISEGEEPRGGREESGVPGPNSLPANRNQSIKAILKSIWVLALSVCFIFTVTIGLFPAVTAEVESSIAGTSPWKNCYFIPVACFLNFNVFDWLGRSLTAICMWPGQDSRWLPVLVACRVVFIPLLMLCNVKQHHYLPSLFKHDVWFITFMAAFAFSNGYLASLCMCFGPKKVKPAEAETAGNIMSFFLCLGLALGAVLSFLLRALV
In words: Transport through ENT1 in rat hepatocytes by oil filtration assay. Conditions: Hepatocyte.

The source made the active and inactive calls. The rule behind the calls is not given here.

Consider `NC(=O)c1ncn([C@@H]2O[C@H](CO)[C@@H](O)[C@H]2O)n1`, for which the outcome in [1], in test [2], in test [3], in test [4] and in test [8] was inactive. The result in [5], in test [6], in test [7], in test [9] and in test [10] was Active.

Take `Nc1ncnc2c1ncn2[C@@H]1O[C@H](CO)[C@@H](O)[C@H]1O`: the outcome in [1], in test [2], in test [3], in [4], in [6] and in test [8] was inactive. The outcome in test [9] and in test [10] was inactive. The outcome in test [5] and in [7] was Active.
